{"source": "ChEMBL document CHEMBL3639107", "about": "“Dioxa-bicyclo[3.2.1]octane-2,3,4-triol derivatives” (2014)", "target": "T1, Sodium/glucose cotransporter 2 (Homo sapiens, UniProt P31639)", "T1 sequence (P31639 whole entry)": "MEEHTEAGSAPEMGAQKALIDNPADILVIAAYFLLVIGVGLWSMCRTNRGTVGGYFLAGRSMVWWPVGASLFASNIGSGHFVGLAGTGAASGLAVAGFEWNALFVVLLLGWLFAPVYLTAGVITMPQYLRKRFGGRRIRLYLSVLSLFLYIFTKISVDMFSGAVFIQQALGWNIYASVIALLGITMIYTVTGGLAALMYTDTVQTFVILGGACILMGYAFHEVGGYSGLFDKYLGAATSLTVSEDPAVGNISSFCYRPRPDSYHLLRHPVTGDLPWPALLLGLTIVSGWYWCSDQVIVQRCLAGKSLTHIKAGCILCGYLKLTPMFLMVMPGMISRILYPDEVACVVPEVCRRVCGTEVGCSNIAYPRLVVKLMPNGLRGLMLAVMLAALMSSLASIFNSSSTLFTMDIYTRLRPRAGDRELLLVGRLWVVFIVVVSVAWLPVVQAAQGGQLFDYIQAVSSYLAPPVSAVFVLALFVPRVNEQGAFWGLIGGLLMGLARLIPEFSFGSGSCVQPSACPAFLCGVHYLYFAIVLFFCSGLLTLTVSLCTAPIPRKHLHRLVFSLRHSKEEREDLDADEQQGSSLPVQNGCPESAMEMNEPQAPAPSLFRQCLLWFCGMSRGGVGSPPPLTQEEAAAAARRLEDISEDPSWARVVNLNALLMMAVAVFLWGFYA", "assay": "Biological Assays: The SGLT2 functional assay was designed to detect the inhibition of methyl-alpha-D glucopyranoside (AMG a non-metabolizable form of glucose) uptake via the SGLT2 transporter. The SGLT2 transporter recovers glucose from the proximal tubules of the kidney; its inhibition results in sugar wasted in the urine. The positive control compound, Phlorizin, is a known inhibitor of glucose uptake for SGLT2 and was used for comparing the high percent effect of SGLT2 inhibition of the test compounds.", "note": "Several values for one entry are separate records, joined by “and”; a condition that tells them apart may be missing. Equal entries are not always repeated."}
{"smiles": "CCOc1ccc(Cc2cc([C@]34OC[C@](COC(C)=O)(O3)[C@@H](O)[C@H](O)[C@H]4O)ccc2Cl)cc1", "values": [{"measurement": "IC50", "result": "5 nM and 6.7 nM"}]}
